Measured values taken from patent US11026943B2, “Aminoquinoline derivatives and uses thereof” (UNIVERSITY OF DELHI, priority 2012, dated 2021).
Where “and” joins values, the source holds several entries; their conditions need not be identical. Equal values may be shown once.

Tests used:
HepG2 cells = assay: In vitro cytotoxicity to mammalian cells, HepG2; type: cell-based; details: Homo sapiens
Source text: (§1) Med. Chem. 2005, 13, 4458; Khan, I. A. Lipids 2004, 37, 169].

[1] = system: CQ-sensitive (D6 clone) strain of P. falciparum; assay: In vitro antimalarial activity, CQ-sensitive strain; type: cell-based, Plasmodium falciparum; details: for IC50: Plasmodium falciparum, CQ-sensitive D6 clone, read-out: P. falciparum (D6 Clone) IC50; for P. falciparum (D6 Clone) S.I.: selectivity index = IC50 cytotoxicity to Vero cells / IC50 antimalarial
Source text: as §1

LLC-PK-1 cells = assay: In vitro cytotoxicity to mammalian cells, LLC-PK-1; type: cell-based; details: Sus scrofa, LLC-PK1
Source text: as §1

VERO cells = assay: In vitro cytotoxicity to mammalian cells, VERO; type: cell-based; details: for IC50: Chlorocebus sabaeus, Vero, in vitro cytotoxicity to mammalian cells
Source text: as §1

[2] = system: CQ-resistant (W2 clone) strain of P. falciparum; assay: In vitro antimalarial activity, CQ-resistant strain; type: cell-based, Plasmodium falciparum; details: for IC50: Plasmodium falciparum, CQ-resistant W2 clone, read-out: P. falciparum (W2 Clone) IC50; for P. falciparum (W2 Clone) S.I.: selectivity index = IC50 cytotoxicity to Vero cells / IC50 antimalarial
Source text: as §1

PC12 cells = assay: 6-OHDA toxicity in PC12 cells (MTT reduction assay); type: cell-based, rat
Procedure: Cell viabilities were determined by the conventional MTT reduction assay. After incubation for indicated times, cells were treated with the MTT solution (final concentration, 1 mg/ml, Sigma) for 1 h. Formazan grains formed in intact cells were solubilized with MTT Solubilization. Solution containing 10% Triton X-100 plus 0.1 N HCl in anhydrous isopropanol for 24 h and then absorbance at 570 nm was measured with a microplate reader (Molecular Devices, Menlo Park, Calif.).

[3] = system: LBDs of Nur77, GR, LXR, RXR, PPARα, PPARγ; assay: Target selectivity: GAL4-LBD reporter assays of other nuclear receptors; type: cell-based; details: FIG. 19; 30 μM AQ
Procedure: The positive reactivity of these NR constructs was confirmed by the known activators (2 nM dexamethasone, 20 nM retinoic acid, 2 μM GW3965, 50 nM GW7647, and 5 nM GW1929 for GR, RXR, LXR, PPARα, and PPARγ, respectively). The basal level of transcriptional activity was normalized to 1. Bars represent means±SEM from three independent experiments.
(§4) Human neuroblastoma SK-N-BE(2)C cells were maintained in Dulbecco's modified Eagle's medium (DMEM) supplemented with 10% fetal bovine serum. All culture media contained 100 units/ml penicillin and 100 μg/ml streptomycin. For transfection, cells were plated at 1.5×10^5 cells/well in the DMEM media without antibiotic into 24-well plates 1 day prior to transfection. Transfections were carried out by the Lipofectamine plus (Invitrogen) according to the manufacture's protocol. Total DNA amount was 0.5 μg per well with 0.1 μg of pRSV-β-gal as an internal control. 6 hours after transfection, compounds in the DMEM media with 1% charcoal-stripped fetal calf serum was added and incubated overnight. […] Then equal volume of firefly luciferase substrate was added and the luciferase activity was measured using a Luminometer plate reader and normalized for beta-galactosidase activity.

Nurr1 LBD [4] = biological target: T1, Nurr1 LBD (Mus musculus, UniProt Q06219); assay: Nurr1 LBD GAL4 reporter assay (pSVGAL(DBD)-N(LBD), p8xGAL-Luc) in SK-N-BE(2)C cells; type: cell-based
Source text: (§2) The pTH2600LUC reporter construct contains the 2.6 kb upstream sequences of the rat tyrosine hydroxylase gene in front of a firefly luciferase gene in pGL3-basic vector. A Nurr1-expression plasmid, pSV40Nurr1, was kindly provided by Dr Orla M. Conneely at Baylor College of Medicine (Houston, Tex., USA). […] The VP16/SRC1 and VP16/SRC3 hybrid were constructed by inserting the transactivation domain of the VP16 protein upstream of SRC1 and SRC3, respectively. […] The recombinant proteins were purified by Ni-NTA column chromatography (Qiagen) according to the manufacturer's instruction. The integrity of all sequences was verified by DNA sequence analyses.
(§3) Human neuroblastoma SK-N-BE(2)C cells were maintained in Dulbecco's modified Eagle's medium (DMEM) supplemented with 10% fetal bovine serum. All culture media contained 100 units/ml penicillin and 100 μg/ml streptomycin. For transfection, cells were plated at 1.5×10^5 cells/well in the DMEM media without antibiotic into 24-well plates 1 day prior to transfection. Transfections were carried out by the Lipofectamine plus (Invitrogen) according to the manufacture's protocol. Total DNA amount was 0.5 μg per well with 0.1 μg of pRSV-β-gal as an internal control. 6 hours after transfection, compounds in the DMEM media with 1% charcoal-stripped fetal calf serum was added and incubated overnight. Cells from each well were lysed with 100 μl of lysis buffer, which contains 25 mM Tris-phosphate (pH 7.8), 2 mM DTT, 2 mM CDTA (1,2-diaminocyclohexane-N,N,N′,N′-tetraacetic acid), 10% glycerol, and 1% Triton X-100. Then equal volume of firefly luciferase substrate was added and the luciferase activity was measured using a Luminometer plate reader and normalized for beta-galactosidase activity.

[5] = system: Nurr1 recruitment to TH promoter NL1 and NL3; assay: Chromatin immunoprecipitation in PC12 cells; type: cell-based, rat; details: 20 μM AQ or 75 μM CQ for 15 hrs
Procedure: Error bars represent standard deviations.
Cells were washed with PBS, fixed with 1% formaldehyde, lysed, and sonicated according to the manufacturer's instruction (Active Motif). 25 μg of soluble chromatin DNA were co-immunoprecipitated 1 μg of Nurr1 specific antibody (E-20, Santa Cruz) or control antibody (rabbit IgG, santa Cruz). […] Values are shown as fold induction compared to mock treated control cells.

[6] = system: primary cultures of rat mesencephalic DA neurons; assay: 6-OHDA-induced death in primary mesencephalic DA neurons (TH+ count, [3H]DA uptake); type: cell-based; details: number of TH+ neurons and DA uptake; 20 μM 6-OHDA for 24 hr
Procedure: Control DA neurons were treated with the above medium in the presence of a dopamine uptake blocker, 10 μM mazindol (Sigma). Cells were then washed with ice-cold Krebs Ringers solution and lysed with 0.5 M NaOH. Radioactivity was quantified by a liquid scintillation counter (Beckman, Fullerton, Calif.).
To prepare primary cultures of DA neurons, the ventral mesencephalon was removed from 14 day gestation Sprague Dawley rat embryo (Charles River, Cambridge, Mass.). Tissues were incubated with 0.01% trypsin in MEM (MEM, Invitrogen) for 10 min at 37° C. and triturated using a constricted Pasteur pipette. DA neurons were plated at 1.0×10^5 cells per 9 mm diameter glass cover slip precoated with 100 μg/ml poly-D-lysine (Sigma, St. Louis, Mo.) and 4 μg/ml laminin (Invitrogen). DA neurons were maintained at 37° C. in a humidified 5% CO2 atmosphere in minimum essential medium supplemented with 10% FBS (Hyclone), 2 mM glutamine and 6.0 g/l glucose. […]
Cells were fixed in 4% paraformaldehyde (PFA) for 20 min, washed and then incubated with blocking buffer [PBS, 10% goat serum (Invitrogen), 0.3% Triton X-100 (Sigma)] for 1 hour. […] Following washes with PBS, appropriate fluorescence-tagged secondary antibodies (Jackson Immunoresearch Laboratories, West Grove, Pa.) were used for visualization. […]

MPTP-treated monkeys = details: previous study; cited from earlier work
Nurr1 LBD [7] = biological target: T1, Nurr1 LBD; assay: Filter binding assay with [3H]-CQ (saturation and competition)
Source text: The basal level of transcriptional activity was normalized to 1. The bars represent means±SEM from three independent experiments. (FIG. 13C) Effect of Nurr1 specific siRNA on Nurr1 LBD's transactivation activity. […] (FIG. 13D) Human neuroblastoma SK-N-BE(2)C cells were transfected with the N-terminal flag-tagged SRC1 or SRC3 and the C-terminal myc-tagged full-length Nurr1. […] Cell lysates were immunoprecipitated (IP) using anti-flag antibodies and analyzed by immunoblotting (IB) using anti-myc antibodies. […] The fold induction was derived by comparing each luciferase activity to basal level obtained by non-SRC transfection. […] The concentrations (04) are shown next to the arrows. […] Specific binding was calculated as the difference of total and non-specific binding. The insert indicates Scatchard analysis of the specific binding. […] The data represent the average of triplicate from three independent experiments. All graphs, Kd, Ki, and Bmax values were generated using the non-linear regression program Prism version 5.02.
GF/C filters were wet with in binding buffer and placed on a 48-place filter manifold. […] Filters were washed with 4×100 ml binding buffer, dried, and mixed with 5 ml Scintiverse BD (Fisher) and radioactivity was determined in a Beckman LS6000SC liquid scintillation counter. […] The mixture was applied to GF/C filter and filter was washed and counted as described above.

aphakia (ak/ak) mice = assay: Behavioral studies in ak/ak mice (Pole, Challenging Beam, Cylinder, Rotarod) and SN histology; type: in vivo, mouse; details: L-DOPA 8 mg/kg i.p. once per day
Procedure: Either 20 mg/kg of AQ (AQ group) or the saline (Saline group) was intraperitoneally injected (I.P.) twice per day for two weeks. 8 mg/kg of L-DOPA (L-DOPA group) in 0.5% DMSO was injected (I.P.) once per day for two weeks. The L-DOPA group was given 12.5 mg/kg benserazide 20 min prior to administration of L-DOPA.
Each ak mouse was randomly assigned into one of three experiment groups, (1) saline group (negative control; n=8), (2) L-DOPA group (positive control; n=8), (3) AQ group (n=10). Each WT or rdl mouse was randomly divided into two groups, (1) saline group (n=8) and (2) AQ group (n=10). Pole Test, Challenging Beam Traversal Test, and Cylinder Test were performed at two time points, immediately and one month after two weeks of either AQ or saline injection. Each mouse ran each task twice. Rota rod test was performed immediately after two weeks of either drug or saline injection. Acclimation and data recording process were identical to the rat study described above. All tasks were performed as described previously^11 and the short description of each task is as follows.
A vertical wooden pole 50 cm in length and 1 cm in diameter was used for Pole Test. Each mouse was gently placed head upwards on top of the pole which is placed on each animal's home cage. Each mouse ran tree trials per session during 2 training sessions. On the testing day, mice ran three trials. Two parameters (the meantime to orient downward and the total travel mean time) were used for the statistical analysis.
A 1 m length of plastic beam was used for Challenging Beam Traversal Test. The starting width of the beam was 3.5 cm and it gradually narrowed in 1 c increments to 0.5 cm at the other end site of the beam. Animals were trained to walk from the wide end to the other end for 2 sessions, three trials per session before testing. A mesh grid was removed during the training period. On the testing day, a mesh grid (1 cm square) covering the beam surface was equipped leaving a […] room between the grid and the beam surface. On the testing day, mice ran three trials. Two parameters (the mean number of steps taken by each animal and the mean time to traverse across three trials) were collected and used for statistical analysis.
A small transparent cylinder (height, 15.5 cm; diameter, 12.7 cm) was used to evaluate somatosensory motor function. Mice were placed in the cylinder and their rears were counted for 5 minutes. The forelimb touching the Plexiglas wall (a vertical movement) is defined as a full rear. The mean number of forelimb use was calculated for the statistical analysis. […]
The Rota rod equipment (Med-Associates, Inc, Albans, Vt., USA) was used to measure motor coordination. […] The mean latency to fall off from the Rota rod was measured for the statistical analysis. […]

Nurr1 = biological target: T2, Nurr1 (Mus musculus, UniProt Q06219); assay: High-throughput cell-based screen of Nurr1-dependent TH promoter activation; details: library of 960 FDA-approved drugs
T2 construct: Full-length mouse Nurr1cDNA was amplified by RT-PCR from pSV40Nurr1; expressed in transfected cells; host or cells: SK-N-BE(2)C human neuroblastoma cells
Source text: The pTH2600LUC reporter construct contains the 2.6 kb upstream sequences of the rat tyrosine hydroxylase gene in front of a firefly luciferase gene in pGL3-basic vector. A Nurr1-expression plasmid, pSV40Nurr1, was kindly provided by Dr Orla M. Conneely at Baylor College of Medicine (Houston, Tex., USA). Full-length mouse Nurr1cDNA was amplified by RT-PCR from pSV40Nurr1 using forward 5′-[sequence]-3′ (SEQ ID NO: 1) and reverse 5′-[sequence]-3′ (SEQ ID NO: 2) oligonucleotides.
as §4

full-length Nurr1 = biological target: T3, full-length Nurr1 (Mus musculus, UniProt Q06219); assay: Full-length Nurr1 reporter assay (p4xNL3-Luc) in SK-N-BE(2)C cells; type: cell-based; details: dose-dependent, maximal
T3 construct: Full-length mouse Nurr1cDNA was amplified by RT-PCR from pSV40Nurr1; expressed in transfected cells; host or cells: SK-N-BE(2)C human neuroblastoma cells
Source text: as §2
as §3, with “6 hours after transfection, compounds in the DMEM media with 1% charcoal-stripped fetal calf serum was added and incubated overnight. Cells from each well were lysed with 100 μl of lysis buffer, which contains 25 mM Tris-phosphate (pH 7.8), 2 mM DTT, 2 mM CDTA (1,2-diaminocyclohexane-N,N,N′,N′-tetraacetic acid), 10% glycerol, and 1% Triton X-100.” left out

T1 sequence (Q06219 328-598): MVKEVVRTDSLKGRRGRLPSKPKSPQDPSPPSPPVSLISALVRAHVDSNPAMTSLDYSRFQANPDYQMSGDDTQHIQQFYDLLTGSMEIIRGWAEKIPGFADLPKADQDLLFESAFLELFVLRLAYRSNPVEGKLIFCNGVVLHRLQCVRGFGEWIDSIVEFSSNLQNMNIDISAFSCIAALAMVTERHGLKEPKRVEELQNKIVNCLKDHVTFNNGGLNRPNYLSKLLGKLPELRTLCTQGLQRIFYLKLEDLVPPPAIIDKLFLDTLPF
T2 sequence (Q06219 whole entry): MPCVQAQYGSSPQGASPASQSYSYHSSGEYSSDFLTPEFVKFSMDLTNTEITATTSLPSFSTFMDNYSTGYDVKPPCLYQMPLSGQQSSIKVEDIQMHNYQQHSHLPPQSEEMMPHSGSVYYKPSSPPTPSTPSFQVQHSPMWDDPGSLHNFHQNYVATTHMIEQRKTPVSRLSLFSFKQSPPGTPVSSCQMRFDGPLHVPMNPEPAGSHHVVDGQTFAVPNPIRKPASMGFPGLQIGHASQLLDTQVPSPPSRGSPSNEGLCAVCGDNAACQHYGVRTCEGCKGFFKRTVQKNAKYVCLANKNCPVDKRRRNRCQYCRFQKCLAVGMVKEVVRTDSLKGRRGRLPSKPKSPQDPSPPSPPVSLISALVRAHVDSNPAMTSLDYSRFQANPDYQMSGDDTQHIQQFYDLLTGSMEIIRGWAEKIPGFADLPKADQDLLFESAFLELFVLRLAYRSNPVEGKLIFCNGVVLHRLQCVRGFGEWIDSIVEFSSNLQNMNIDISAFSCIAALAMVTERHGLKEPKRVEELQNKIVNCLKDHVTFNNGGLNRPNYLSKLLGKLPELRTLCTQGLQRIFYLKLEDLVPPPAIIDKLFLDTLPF
T3 sequence (Q06219 whole entry): as above

Row | SMILES | melting point | IC50 (HepG2 cells) | IC50 [1] | P. falciparum (D6 Clone) S.I. [1] | IC50 (LLC-PK-1 cells) | IC50 (VERO cells) | IC50 [2] | P. falciparum (W2 Clone) S.I. [2] | other results
1 | Cc1cc(NCCCCNc2ccnc3cc(Cl)ccc23)nc(N2CCN(C)CC2)n1 [12k, N-(7-Chloro-quinolin-4-yl)-N′-[6-methyl-2-(4-methyl-piperazin-1-yl)-pyrimidin-4-yl]-butane-1,4-diamine] | 183 to 185 °C | 27.2 µM | 22 nM | (>2727) | 34 µM | > 60 µM | 21 nM | (>2857) | –
2 | Cc1cc(NCCCCCCNc2ccnc3cc(Cl)ccc23)nc(N2CCN(C)CC2)n1 [12l, N-(7-Chloro-quinolin-4-yl)-N′-[6-methyl-2-(4-methyl-piperazin-1-yl)-pyrimidin-4-yl]-hexane-1,6-diamine] | 152 to 154 °C | < 6.7 µM | 7 nM | (>1457) | 7.4 µM | 10.2 µM | 16 nM | (>637) | activity fold higher than artemisinin ([1]; CQ-sensitive strain): 2 fold; selectivity index of antimalarial activity ([1]; ratio of IC50 for cytotoxicity to Vero cells and IC50 for antimalarial activity): considerably high; toxicity to cell lines (VERO cells; all the three cell lines (VERO, LLC-PK-1, and HepG2)): showed toxicity
3 | CCN1CCN(c2nc(C)cc(NCCCCNc3ccnc4cc(Cl)ccc34)n2)CC1 [12n, N-(7-Chloro-quinolin-4-yl)-N′-[2-(4-ethyl-piperazin-1-yl)-6-methyl-pyrimidin-4-yl]-butane-1,4-diamine] | 101 to 103 °C | 14.9 µM | 19 nM | 1678.9 | 10.5 µM | 31.9 µM | 18 nM | 1772.2 | –
4 | CCN(CC)CCCC(C)Nc1ccnc2cc(Cl)ccc12 (stereo not shown) [CQ, chloroquine] | – | – | – | – | – | – | – | – | neuroprotective effect in PC12 cells (PC12 cells): neuroprotective effect; transcriptional activity of other nuclear receptors [3]: unable to induce; EC50 (Nurr1 LBD [4]; read-out: EC50 Nurr1 LBD-based reporter activity): ~60 µM and ~50 µM; Nurr1 recruitment to NL1 and NL3 sites of the TH promoter [5]: recruited to both NL1 and NL3 sites; 6-OHDA-induced death in primary DA neurons [6]: significantly inhibit; MPTP-induced parkinsonian motor abnormalities (MPTP-treated monkeys): protected them from MPTP-induced parkinsonian motor abnormalities; Ki (Nurr1 LBD [7]; 500 nM [3H]-CQ): 88 nM
5 | N[C@@H](Cc1ccc(O)c(O)c1)C(=O)O [L-DOPA] | – | – | – | – | – | – | – | – | rearing activity in Cylinder test (aphakia (ak/ak) mice): dramatically induced rearing activity
6 | CCN(CC)CCCC(C)Nc1ccnc2cc(Cl)ccc12 (stereo not shown) [[^3H]-CQ] | – | – | – | – | – | – | – | – | Kd (Nurr1 LBD [7]; radioligand saturation binding, read-out: dissociation constant, saturable binding to Nurr1-LBD): 270 nM
7 | O=C(OCC(O)CO)c1ccccc1Nc1ccnc2cc(Cl)ccc12 (stereo not shown) [glafenine] | – | – | – | – | – | – | – | – | screen outcome (Nurr1): hit compounds; luciferase reporter activity, fold activation (full-length Nurr1): approximately 1.6 fold
8 | COc1cc(NC(C)CCCN)c2ncccc2c1 (stereo not shown) [primaquine] | – | – | – | – | – | – | – | – | transactivation of Nurr1 LBD / Nurr1 transcriptional function (Nurr1 LBD [4]; wide range of concentrations, FIG. 18): couldn't enhance the Nurr1 transcriptional function; Ki, competition with [3H]-CQ for binding to Nurr1-LBD (Nurr1 LBD [7]; 500 nM [3H]-CQ): unable to compete
